Measured values: patent US11033539B2, “Compounds of formulas (VII), (VIII), (IX), (XI), (XII), (XIII), and (XIV) as muscarinic receptor 4(M4) antagonists for treating neurological diseases” (Neurocrine Biosciences, Inc., priority 2015, dated 2021)

Experiments:
human M1 receptor = human M1 receptor (Homo sapiens (Human), UniProt P11229); test: Radioligand (tritiated N-methylscopolamine) binding assay, M1; settings: CHO cell membranes expressing human M1; 1.5 nM tritiated N-methylscopolamine; 90 min, 37° C.; read-out: Ki against M1 receptor (Table 21, M1)
human M1 receptor, sequence (P11229 whole entry): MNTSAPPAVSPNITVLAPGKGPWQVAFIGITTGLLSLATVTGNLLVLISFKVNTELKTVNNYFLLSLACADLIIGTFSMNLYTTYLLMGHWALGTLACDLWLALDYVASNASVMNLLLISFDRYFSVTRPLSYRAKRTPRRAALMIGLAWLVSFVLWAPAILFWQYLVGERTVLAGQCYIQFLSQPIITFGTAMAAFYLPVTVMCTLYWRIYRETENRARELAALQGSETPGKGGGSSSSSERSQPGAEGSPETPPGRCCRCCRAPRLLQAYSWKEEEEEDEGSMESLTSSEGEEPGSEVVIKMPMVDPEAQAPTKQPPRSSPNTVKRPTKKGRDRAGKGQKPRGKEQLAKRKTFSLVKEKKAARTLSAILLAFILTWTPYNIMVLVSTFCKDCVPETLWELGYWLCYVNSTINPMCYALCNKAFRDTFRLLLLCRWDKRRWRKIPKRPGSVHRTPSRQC
Outline: (§1)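 Membranes from CHO cells expressing the receptor were incubated with 1.5 nM radioligand and twelve compound concentrations (10 μM to […]) for 90 min at 37 °C in 50 mM HEPES, 100 mM NaCl, 5 mM MgCl2, 1 mM EDTA, pH 7.4. Bound radioligand was collected by filtration and counted, and Ki was derived from inhibition.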

human M5 receptor = human M5 receptor (Homo sapiens (Human), UniProt P08912); test: Radioligand (tritiated N-methylscopolamine) binding assay, M5; settings: CHO cell membranes expressing human M5; 1.5 nM tritiated N-methylscopolamine; 90 min, 37° C.; read-out: Ki against M5 receptor (Table 21, M5)
human M5 receptor, sequence (P08912 whole entry): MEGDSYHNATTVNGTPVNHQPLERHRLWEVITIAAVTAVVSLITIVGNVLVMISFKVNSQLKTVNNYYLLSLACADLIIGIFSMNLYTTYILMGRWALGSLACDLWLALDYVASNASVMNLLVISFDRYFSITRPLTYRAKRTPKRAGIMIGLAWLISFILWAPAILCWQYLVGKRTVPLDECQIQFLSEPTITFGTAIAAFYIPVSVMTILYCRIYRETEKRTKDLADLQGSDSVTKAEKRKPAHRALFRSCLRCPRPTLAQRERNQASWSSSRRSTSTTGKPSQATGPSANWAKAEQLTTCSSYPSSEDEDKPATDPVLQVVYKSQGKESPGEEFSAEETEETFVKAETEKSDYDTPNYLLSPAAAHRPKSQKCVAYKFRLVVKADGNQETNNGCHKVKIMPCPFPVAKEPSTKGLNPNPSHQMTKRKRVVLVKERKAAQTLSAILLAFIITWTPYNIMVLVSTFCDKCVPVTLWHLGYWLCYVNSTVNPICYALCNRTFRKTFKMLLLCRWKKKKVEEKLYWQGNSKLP
Outline: as §1

human M2 receptor = human M2 receptor (Homo sapiens (Human), UniProt P08172); test: Radioligand (tritiated N-methylscopolamine) binding assay, M2; settings: CHO cell membranes expressing human M2; 1.5 nM tritiated N-methylscopolamine; 90 min, 37° C.; read-out: Ki against M2 receptor (Table 21, M2)
human M2 receptor, sequence (P08172 whole entry): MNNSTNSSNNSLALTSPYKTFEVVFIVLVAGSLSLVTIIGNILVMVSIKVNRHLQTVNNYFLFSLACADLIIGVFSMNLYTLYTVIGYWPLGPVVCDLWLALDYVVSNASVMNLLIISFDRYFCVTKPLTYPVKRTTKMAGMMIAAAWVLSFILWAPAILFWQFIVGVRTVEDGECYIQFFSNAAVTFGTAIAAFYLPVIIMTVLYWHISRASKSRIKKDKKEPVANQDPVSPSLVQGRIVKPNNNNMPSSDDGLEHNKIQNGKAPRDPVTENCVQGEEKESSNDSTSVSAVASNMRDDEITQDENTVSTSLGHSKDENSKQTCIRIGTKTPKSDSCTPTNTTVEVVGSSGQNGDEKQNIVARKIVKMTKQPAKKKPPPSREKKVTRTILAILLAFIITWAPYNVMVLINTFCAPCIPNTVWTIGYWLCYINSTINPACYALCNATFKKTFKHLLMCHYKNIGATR
Outline: as §1

human M3 receptor = human M3 receptor (Homo sapiens (Human), UniProt P20309); test: Radioligand (tritiated N-methylscopolamine) binding assay, M3; settings: CHO cell membranes expressing human M3; 1.5 nM tritiated N-methylscopolamine; 90 min, 37° C.; read-out: Ki against M3 receptor (Table 21, M3)
human M3 receptor, sequence (P20309 whole entry): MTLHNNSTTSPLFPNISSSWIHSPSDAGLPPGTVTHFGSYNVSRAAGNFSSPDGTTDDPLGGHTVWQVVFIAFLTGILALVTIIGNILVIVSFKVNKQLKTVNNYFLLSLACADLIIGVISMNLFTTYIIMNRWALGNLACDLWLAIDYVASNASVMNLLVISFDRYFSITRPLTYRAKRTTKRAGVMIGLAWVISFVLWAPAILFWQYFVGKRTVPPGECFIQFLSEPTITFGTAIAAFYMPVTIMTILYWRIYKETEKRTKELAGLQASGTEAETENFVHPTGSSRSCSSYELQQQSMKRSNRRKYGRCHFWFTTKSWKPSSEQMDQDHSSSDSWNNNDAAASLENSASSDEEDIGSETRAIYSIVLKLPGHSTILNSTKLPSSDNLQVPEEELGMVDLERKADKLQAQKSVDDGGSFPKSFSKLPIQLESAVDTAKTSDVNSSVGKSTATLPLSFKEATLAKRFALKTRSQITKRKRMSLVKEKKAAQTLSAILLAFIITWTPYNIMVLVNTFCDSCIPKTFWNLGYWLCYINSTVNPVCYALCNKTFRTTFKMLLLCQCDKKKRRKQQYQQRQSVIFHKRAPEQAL
Outline: as §1

human M4 receptor = human M4 receptor (Homo sapiens (Human), UniProt P08173); test: Radioligand (tritiated N-methylscopolamine) binding assay, M4; settings: Ki against the M4 receptor; membranes from CHO cells expressing human M4; tritiated N-methylscopolamine 1.5 nM; read-out: Ki
human M4 receptor, sequence (P08173 whole entry): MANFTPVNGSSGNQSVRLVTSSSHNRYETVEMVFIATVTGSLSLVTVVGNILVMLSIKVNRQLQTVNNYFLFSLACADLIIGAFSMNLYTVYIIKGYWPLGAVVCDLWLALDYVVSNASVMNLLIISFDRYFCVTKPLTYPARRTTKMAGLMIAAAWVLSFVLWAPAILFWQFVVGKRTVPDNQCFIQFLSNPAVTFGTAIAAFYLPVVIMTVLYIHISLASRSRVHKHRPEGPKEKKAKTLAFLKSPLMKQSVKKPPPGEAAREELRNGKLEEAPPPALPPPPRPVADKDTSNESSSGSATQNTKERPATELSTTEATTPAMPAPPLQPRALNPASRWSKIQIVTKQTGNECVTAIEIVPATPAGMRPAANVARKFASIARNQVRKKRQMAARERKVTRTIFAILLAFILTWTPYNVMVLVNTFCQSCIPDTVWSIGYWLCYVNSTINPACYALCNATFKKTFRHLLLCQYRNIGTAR
Outline: as §1

SMILES	Ki (human M1 receptor)	Ki (human M5 receptor)	Ki (human M2 receptor)	Ki (human M3 receptor)	Ki (human M4 receptor)
C[C@@H]1CN(C(=O)NCCC2CCN(Cc3ccccc3)CC2)CCN1c1cc(F)c(F)c(F)c1 [4-17, (3R)-N-[2-(1-benzylpiperidin-4-yl)ethyl]-3-methyl-4-(3,4,5-trifluorophenyl)piperazine-1-carboxamide]	> 1 µM	> 1 µM	0.1 to 1 µM	> 1 µM	< 0.01 µM
C[C@H]1CN(c2ncc(C(F)(F)F)cc2F)CCC1C(=O)NCCC1CCN(Cc2ccccc2)CC1 (stereo partly drawn) [10-81, (3R)-N-[2-(1-benzylpiperidin-4-yl)ethyl]-1-[3-fluoro-5-(trifluoromethyl)pyridin-2-yl]-3-methylpiperidine-4-carboxamide]	0.01 to 0.1 µM	0.1 to 1 µM	0.01 to 0.1 µM	0.01 to 0.1 µM	< 0.01 µM
C[C@H]1CN(c2ccc(F)c(C#N)c2)CCN1C(=O)NCCC1CCN(Cc2ccccc2)CC1 [4-20, (2S)-N-[2-(1-benzylpiperidin-4-yl)ethyl]-4-(3-cyano-4-fluorophenyl)-2-methylpiperazine-1-carboxamide]	0.1 to 1 µM	> 1 µM	0.01 to 0.1 µM	> 1 µM	< 0.01 µM
Cc1c(C(=O)NCCC2CCN(Cc3ccccc3)CC2)cnc2cc(-c3ccc(F)cc3)nn12 [18-4]	0.1 to 1 µM	> 1 µM	0.1 to 1 µM	> 1 µM	< 0.01 µM
C[C@@H]1CN(c2cc(F)c(F)c(Cl)c2)C[C@H](C)N1C(=O)NCCC1CCN(Cc2ccccc2)CC1 [22-7]	0.1 to 1 µM	0.1 to 1 µM	0.01 to 0.1 µM	0.1 to 1 µM	< 0.01 µM
C[C@@H]1CN(c2nc(Cl)cc(C#N)n2)C[C@H](C)N1C(=O)NCCC1CCN(Cc2ccccc2)CC1 [4-11, (2S,6R)-N-[2-(1-benzylpiperidin-4-yl)ethyl]-4-(4-chloro-6-cyanopyrimidin-2-yl)-2,6-dimethylpiperazine-1-carboxamide]	0.1 to 1 µM	> 1 µM	0.01 to 0.1 µM	> 1 µM	< 0.01 µM
C[C@@H]1CN(c2ccc(F)c(C(F)F)c2)CCN1C(=O)NCCC1CCN(Cc2ccccc2)CC1 [7-9, (2R)-N-[2-(1-benzylpiperidin-4-yl)ethyl]-4-[3-(difluoromethyl)-4-fluorophenyl]-2-methylpiperazine-1-carboxamide]	0.1 to 1 µM	> 1 µM	0.1 to 1 µM	> 1 µM	< 0.01 µM
C[C@@H]1CN(c2cc(C(F)(F)F)ccn2)CCN1C(=O)NCCC1CCN(Cc2ccccc2)CC1 [4-12, (2R)-N-[2-(1-benzylpiperidin-4-yl)ethyl]-2-methyl-4-[4-(trifluoromethyl)pyridin-2-yl]piperazine-1-carboxamide]	0.1 to 1 µM	> 1 µM	0.01 to 0.1 µM	0.1 to 1 µM	< 0.01 µM
C[C@@H]1CN(c2ncc(C#N)cn2)C[C@H](C)N1C(=O)NCCC1CCN(Cc2ccccc2)CC1 [5-20, (2S,6R)-N-[2-(1-benzylpiperidin-4-yl)ethyl]-4-(5-cyanopyrimidin-2-yl)-2,6-dimethylpiperazine-1-carboxamide]	> 1 µM	> 1 µM	0.1 to 1 µM	> 1 µM	< 0.01 µM
C[C@@H]1CN(c2cnc(C(F)(F)F)cn2)C[C@@H](C)N1C(=O)NCCC1CCN(Cc2ccccc2)CC1 [26-4, (2R,6R)-N-[2-(1-benzylpiperidin-4-yl)ethyl]-2,6-dimethyl-4-[5-(trifluoromethyl)pyrazin-2-yl]piperazine-1-carboxamide]	> 1 µM	> 1 µM	0.1 to 1 µM	> 1 µM	< 0.01 µM
C[C@@H]1CN(c2cc(F)c(OC(F)(F)F)c(F)c2)CCN1C(=O)NCCC1CCN(Cc2ccccc2)CC1 [4-60, (2R)-N-[2-(1-benzylpiperidin-4-yl)ethyl]-4-[3,5-difluoro-4-(trifluoromethoxy)phenyl]-2-methylpiperazine-1-carboxamide]	0.1 to 1 µM	0.1 to 1 µM	0.01 to 0.1 µM	0.1 to 1 µM	< 0.01 µM
C[C@@H]1CN(c2cc(F)c(F)c(F)c2)CCN1C(=O)NCCC1CCN(Cc2ccc(O)cc2)CC1 [6-27, (2R)-N-(2-{1-[(4-hydroxyphenyl)methyl]piperidin-4-yl}ethyl)-2-methyl-4-(3,4,5-trifluorophenyl)piperazine-1-carboxamide]	0.1 to 1 µM	> 1 µM	0.01 to 0.1 µM	0.1 to 1 µM	< 0.01 µM
C[C@@H]1CN(c2ccc(C#N)c(F)c2)CCN1C(=O)NCCC1CCN(Cc2ccccc2)CC1 [22-15]	0.1 to 1 µM	0.1 to 1 µM	0.01 to 0.1 µM	> 1 µM	< 0.01 µM
C[C@@H]1CN(c2ccc(F)c(C#N)c2)CCN1C(=O)NCCC1(O)CCN(Cc2ccccc2)CC1 [7-11, (2R)-N-[2-(1-benzyl-4-hydroxypiperidin-4-yl)ethyl]-4-(3-cyano-4-fluorophenyl)-2-methylpiperazine-1-carboxamide]	> 1 µM	> 1 µM	> 1 µM	> 1 µM	< 0.01 µM
C[C@@H]1CN(c2ccc(C#N)c(F)c2)C[C@H](C)N1C(=O)NCCC1CCN(Cc2ccccc2)CC1 [22-4]	> 1 µM	> 1 µM	0.01 to 0.1 µM	> 1 µM	< 0.01 µM
C[C@@H]1CN(c2cc(F)cc(C#N)c2)CCN1C(=O)NC[C@@H](O)C1CCN(Cc2ccccc2)CC1 [9-5, (2R)-N-[(2S)-2-(1-benzylpiperidin-4-yl)-2-hydroxyethyl]-4-(3-cyano-5-fluorophenyl)-2-methylpiperazine-1-carboxamide]	> 1 µM	> 1 µM	> 1 µM	> 1 µM	< 0.01 µM
N#Cc1cc(N2CCC(C(=O)NCCC3CCN(Cc4ccccc4)CC3)CC2)ccc1F [9-73, N-[2-(1-benzylpiperidin-4-yl)ethyl]-1-(3-cyano-4-fluorophenyl)piperidine-4-carboxamide]	> 1 µM	> 1 µM	0.1 to 1 µM	> 1 µM	< 0.01 µM
C[C@@H]1CN(c2ccc(C#N)cn2)C[C@H](C)N1C(=O)NCCC1CCN(Cc2ccccc2)CC1 [3-23, (2S,6R)-N-[2-(1-benzylpiperidin-4-yl)ethyl]-4-(5-cyanopyridin-2-yl)-2,6-dimethylpiperazine-1-carboxamide]	> 1 µM	> 1 µM	0.1 to 1 µM	> 1 µM	< 0.01 µM
C[C@@H]1CN(c2ccc(C#N)cc2)C[C@H](C)N1C(=O)NCCC1CCN(Cc2ccccc2)CC1 [22-2]	> 1 µM	> 1 µM	0.1 to 1 µM	> 1 µM	< 0.01 µM
C[C@@H]1CN(c2ncc(C(F)(F)F)cn2)CCN1C(=O)NCCC1CCN(Cc2ccc(F)cc2)CC1 [6-37, (2R)-N-(2-{1-[(4-fluorophenyl)methyl]piperidin-4-yl}ethyl)-2-methyl-4-[5-(trifluoromethyl)pyrimidin-2-yl]piperazine-1-carboxamide]	0.1 to 1 µM	> 1 µM	0.01 to 0.1 µM	> 1 µM	< 0.01 µM
N#Cc1cc(N2CCC(C(=O)NCCC3CCN(Cc4ccccc4)CC3)CC2)ccc1OC(F)(F)F [10-57, N-[2-(1-benzylpiperidin-4-yl)ethyl]-1-[3-cyano-4-(trifluoromethoxy)phenyl]piperidine-4-carboxamide]	0.1 to 1 µM	> 1 µM	0.01 to 0.1 µM	> 1 µM	< 0.01 µM
